The text below walks through data of patent US4293695A, “Furonaphthyridine compounds” (Daiichi Seiyaku Co., Ltd., priority 1978, dated 1981).

≈ marks a conversion by molar mass, not a printed value. Bounds are passed on as bounds.

One series has as its system S. aureus. As to the kind of experiment: MIC, dilution method on plate culture (heart infusion agar). The series is classed as cell-based. The note with it: Staphylococcus aureus, 10^6/ml bacteria, 37° C., 18 hours, read-out: Minimum Inhibitory Concentration (MIC). On the procedure: (§1) Thus, these compounds are very useful anti-bacterial agents. The anti-bacterial activity (in vitro) and the acute toxicity (LD50) of the compounds of this invention are shown in the following Table in comparison with known oxolinic acid.
(§2) *Determined by the standard method of Japan Society of Chemotherapy:
(§3) dilution method on plate culture (heart infusion agar culture), 10^6
(§4) /ml of bacteria were seeded and incubated at 37° C. for 18 hours.

The test system of another series is Ser. marcescens 13014. The series is described as above. It is filed as cell-based. Particulars: Serratia marcescens, 10^6/ml bacteria, 37° C., 18 hours, read-out: Minimum Inhibitory Concentration (MIC). On the procedure: as §1, §2, §3, §4
In a further series the test system is E. coli NIHJ. The description is as above. The series is classed as cell-based. The note with it: Escherichia coli, 10^6/ml bacteria, 37° C., 18 hours, read-out: Minimum Inhibitory Concentration (MIC). The protocol: as §1, §2, §3, §4
The next series has as its system Ent. cloacae 12001. The series is described as above. It is filed as cell-based. Particulars: Enterobacter cloacae, 10^6/ml bacteria, 37° C., 18 hours, read-out: Minimum Inhibitory Concentration (MIC). On the procedure: as §1, §2, §3, §4
The subject of another series is Pr. mirabilis. The series is described as above. It is filed as cell-based. The note with it: Proteus mirabilis, 10^6/ml bacteria, 37° C., 18 hours, read-out: Minimum Inhibitory Concentration (MIC). The protocol:
as §1, §2, §3, §4

A further series concerns Ps. aeruginosa 2063. The series is described as above. The series is classed as cell-based. The note with it: Pseudomonas aeruginosa, 10^6/ml bacteria, 37° C., 18 hours, read-out: Minimum Inhibitory Concentration (MIC). The protocol:
as §1, §2, §3, §4

A further series relates to Pr. vulgaris. Described as above. The series is classed as cell-based. Particulars: Proteus vulgaris, 10^6/ml bacteria, 37° C., 18 hours, read-out: Minimum Inhibitory Concentration (MIC). The protocol: as §1, §2, §3, §4
In another series the test system is K. pneumoniae, Type 1. Described as above. Particulars: Klebsiella pneumoniae, TYPE1, 10^6/ml bacteria, 37° C., 18 hours, read-out: Minimum Inhibitory Concentration (MIC). It is filed as cell-based. On the procedure:
as §1, §2, §3, §4

A further series is described as follows: acute toxicity (LD50). Particulars: mouse, in vivo, iv; mice i.v.
Source text: as §1

`CCn1cc(C(=O)O)c(=O)c2cc3occc3nc21` [Compound Ia, 5,8-dihydro-5-ethyl-8-oxofuro[3,2-b]-1,8-naphthyridine-7-carboxylic acid]: the MIC was 3.1 µg/mL (≈ 12 µM) in the series with S. aureus; 0.4 µg/mL (≈ 1.55 µM) in the series on Ser. marcescens 13014; at most 0.2 µg/mL in the series with E. coli NIHJ; 0.4 µg/mL (≈ 1.55 µM) in the series with Ent. cloacae 12001; at most 0.2 µg/mL with Pr. mirabilis; 3.1 µg/mL (≈ 12 µM) with Ps. aeruginosa 2063. Further, the MIC with Pr. vulgaris was at most 0.2 µg/mL; in the series with K. pneumoniae, Type 1, 1.6 µg/mL (≈ 6.2 µM). Further, in “acute toxicity (LD50)”, the LD50 was 221 mg/kg.
Take `CCn1cc(C(=O)O)c(=O)c2cc3c(nc21)CCO3` [Compound Ib, 5-ethyl-8-oxo-2,3,5,8-tetrahydrofuro[3,2-b]-1,8-naphthyridine-7-carboxylicacid]: the MIC in the series with S. aureus was 3.1 µg/mL (≈ 11.9 µM); in the series with Ser. marcescens 13014 it was at most 0.2 µg/mL; in the series with E. coli NIHJ, at most 0.2 µg/mL; in the series with Ent. cloacae 12001, at most 0.2 µg/mL; in the series with Pr. mirabilis it was at most 0.2 µg/mL; in the series on Ps. aeruginosa 2063, 6.3 µg/mL (≈ 24.2 µM). The MIC in the series with Pr. vulgaris is at most 0.2 µg/mL; with K. pneumoniae, Type 1, 0.8 µg/mL (≈ 3.07 µM). Further, the LD50 in “acute toxicity (LD50)” came out at 376 mg/kg.
On to `CCn1cc(C(=O)O)c(=O)c2cc3c(cc21)OCO3` [Oxolinic Acid, 5-ethyl-5,8-dihydro-8-oxo-1,3-dioxolo[4,5-g]quinoline-7-carboxylic acid, reference compound], for which the MIC was 3.1 µg/mL (≈ 11.9 µM) in the series with S. aureus; 0.8 µg/mL (≈ 3.06 µM) with Ser. marcescens 13014; at most 0.2 µg/mL in the series with E. coli NIHJ; 0.8 µg/mL (≈ 3.06 µM) in the series on Ent. cloacae 12001; 25 µg/mL (≈ 95.7 µM) in the series with Ps. aeruginosa 2063; 3.1 µg/mL (≈ 11.9 µM) in the series on K. pneumoniae, Type 1.
